# Starred links: 1 amine or outer side, 2 acyl side, 3 side chain; linkers in the order of their positions; H or OH if unused. Positions of bridges follow the written chain, without caps; N, C: chain ends. Non-standard residues stand in square brackets, D forms with d. Residues, ends and D or L forms follow the SMILES beside them. Adda = CO[C@@H](Cc1ccccc1)[C@@H](C)/C=C(C)/C=C/[C@H](N[*:1])[C@H](C)C(=O)[*:2]; dAsp(3S-Me) = C[C@H](C(=O)[*:3])[C@@H](N[*:1])C(=O)[*:2]; d(γGlu) = O=C(O)[C@@H](CCC(=O)[*:2])N[*:1]; NMeDha = C=C(NC)C(=O)O
# Tests used:
# SGK2α = assay: Activation of GST-SGK2α in transfected 293 cells (Example 5); format: cell-based, human
# Procedure: (§1) Cells were transiently transfected with DNA constructs expressing (A) GST-SGK1, (B), GST-SGK2α and (C) GST-SGK3. At 24 h after transfection, the cells were deprived of serum for 16 h, then exposed to 50 ng/ml IGF-1 (10 min), 400 ng/ml phorbol myristate acetate (PMA) (30 min), 10% serum (30 min), 1 μM dexamethasone (Dex, 60 min), 2 mM H2O2 (25 min), 5 μg/ml anisomycin (AN, 30 min), 0.4 M sorbitol (30 min), hypotonic stress (1 ml of water added to 3 ml of DMEM, 30 min), UV radiation (30 min after exposure to 200 J/m2) or left untreated (control). After each treatment, the cells were lysed in ice-cold lysis buffer and SGK activity in 100 μg of cell lysate protein was measured.
# (§2) FIG. 20. […] Cells were transiently transfected with DNA constructs expressing (A) GST-SGK1, (B) GST-SGK2α and (C) GST-SGK3. At 24 h after transfection, the cells were deprived of serum for 16 h. The transfectants were then pretreated for 10 min with 100 nM wortmannin or for 1 h with 100 μM LY294002 and then stimulated for 25 min with 2 mM H2O2.
# (§3) Expression of SGK isoforms in 293 cells. […] After each treatment, the cells were lysed and the activity of SGK isoforms was measured after affinity purification of the GST-fusion proteins on glutathione Sepharose, as described previously for SGK1 [18].
# SGK3 [1] = assay: Activation of GST-SGK3 in transfected 293 cells (Example 5); format: cell-based, human
# Procedure: as §1, §2, §3
# SGK1 = assay: Activation of GST-SGK1 in transfected 293 cells (Example 5); format: cell-based, human
# Procedure: as §1, §2, §3
# SGK [2] = assay: Activation of GST-SGK in transfected 293 cells (Example 1); format: cell-based, human; conditions: PMA 400 ng/ml 30 min, EGF 100 ng/ml 30 min
# SGK [3] = target: T1, SGK (Homo sapiens, UniProt O00141); assay: Phosphorylation and activation of SGK by PDK1 in vitro; format: biochemical; conditions: 1 μM PtdIns(3,4,5)P3, with or without PS/PC lipid vesicles
# T1 construct: PEBG-SGK expressing full length SGK; made in house; host or cells: 293 cells
# T1 sequence (O00141 whole entry, looked up): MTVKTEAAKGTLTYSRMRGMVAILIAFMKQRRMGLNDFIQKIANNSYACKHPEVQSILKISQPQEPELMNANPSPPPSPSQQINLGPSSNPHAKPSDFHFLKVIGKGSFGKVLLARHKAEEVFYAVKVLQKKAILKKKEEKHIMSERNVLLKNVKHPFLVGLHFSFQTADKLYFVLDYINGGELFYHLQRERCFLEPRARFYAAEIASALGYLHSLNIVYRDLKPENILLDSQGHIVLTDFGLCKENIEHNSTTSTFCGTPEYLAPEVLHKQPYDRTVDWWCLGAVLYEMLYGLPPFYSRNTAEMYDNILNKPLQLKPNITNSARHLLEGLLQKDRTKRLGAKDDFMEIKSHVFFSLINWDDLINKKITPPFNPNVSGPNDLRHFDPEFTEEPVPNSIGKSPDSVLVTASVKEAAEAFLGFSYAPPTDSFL
# Procedure: (A) GST-SGK (0.3 μg) was phosphorylated using GST-PDK1 (0.1 μg) and [γ-^32P] ATP (500 cpm/pmol) as described under Methods. Where indicated (+), 1 μM PtdIns(3,4,5)P3 in lipid vesicles containing phosphatidylserine (100 μM) and phosphatidylcholine (100 μM) (PS/PC) were also included. The reactions were stopped by the addition of SDS to 2% and, after heating for 5 min at 95° C., the samples were subjected to electrophoresis on 10% SDS/polyacrylamide gels, stained with Coomasssie blue and then autoradiographed. The positions of the molecular mass markers are also indicated (B) Same as (A), except that unlabelled ATP was used instead of [γ-^32P] ATP. After incubation for 10 min at 30° C., 10 μl aliquots were assayed for SGK activity using Crosstide as substrate. The results are shown ±SD for three separate experiments.
# Phosphorylation and assay of SGK. Phosphorylation was carried out at 30° C. in 50 μl incubations containing 50 mM Tris/HCl pH 7.5, 0.1 mM EGTA, 0.1% (v/v) 2-mercaptoethanol, 2.5 μM PKI, 1 μM microcystin-LR, 10 mM magnesium chloride and 100 μM ATP. Where indicated lipid vesicles containing phosphatidylcholine (100 μM), phosphatidyl serine (100 μM) and PtdIns(3,4,5)P3 (1 μM) were also included. SGK activity was assayed exactly as described for PKB [6] using the peptide […] (SEQ. ID. NO:30) (“Crosstide”) at 30 μM as substrate. […]
# SGK3 [4] = target: T2, SGK3 (Homo sapiens, UniProt Q96BR1); assay: Activation of SGK3 by PDK1 in vitro; format: biochemical; conditions: 10 μM in PS/PC lipid vesicles
# T2 construct: made in house; host or cells: 293 cells
# T2 sequence (Q96BR1 68-496 limits assumed): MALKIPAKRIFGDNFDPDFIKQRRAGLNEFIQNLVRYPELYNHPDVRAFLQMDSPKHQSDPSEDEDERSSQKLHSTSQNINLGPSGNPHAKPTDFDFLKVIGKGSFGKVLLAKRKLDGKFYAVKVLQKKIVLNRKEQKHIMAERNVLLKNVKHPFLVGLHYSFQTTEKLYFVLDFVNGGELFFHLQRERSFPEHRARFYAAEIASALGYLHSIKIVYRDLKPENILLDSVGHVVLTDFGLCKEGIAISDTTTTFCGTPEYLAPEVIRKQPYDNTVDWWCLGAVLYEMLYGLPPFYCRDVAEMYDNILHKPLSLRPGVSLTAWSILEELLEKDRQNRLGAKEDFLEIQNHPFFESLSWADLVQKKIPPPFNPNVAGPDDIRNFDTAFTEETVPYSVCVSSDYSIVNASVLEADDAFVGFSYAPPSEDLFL
# Procedure: (§4) Each GST-SGK isoform (0.4 μg) was incubated for 20 min at 30° C. with protein phosphatase 2A (PP2A, 30 mU/ml) in a 10 μl incubation containing 20 mM Tris/HCl, pH 7.5, 0.1% (v/v) 2-mercaptoethanol, 0.1 mM EGTA and 1 mg/ml bovine serum albumin. After addition of microcystin-LR to 1 μM to inactivate PP2A, SGK (0.4 μg) was phosphorylated for 30 min at 30° C. in a mixture (20 μl) containing 50 mM Tris/HCl, pH 7.5, 10 mM MgCl2, 0.1% (v/v) 2-mercaptoethanol, 0.1 mM EGTA, GST-PDK1 (0.03–300 ng) diluted in Buffer C and 100 μM unlabelled ATP. SGK assays were initiated by the addition of 30 μl of a mixture containing 50 mM Tris/HCl, pH 7.5, 10 mM MgCl2, 0.1% (v/v) 2-mercaptoethanol, 0.1 mM EGTA, 100 μM [γ-^32P] ATP (500 c.p.m/pmol), 50 μM of the peptide substrate Crosstide ([…]) (SEQ. ID. NO:30) and 4.2 μM of residues 5–24 of the specific protein inhibitor of adenosine 3′5′ cyclic monophosphate-dependent protein kinase. After 10 min at 30° C., the reactions were terminated by spotting aliquots on to P81 phosphocellulose paper, followed by immediate immersion in 75 mM phosphoric acid. The papers were washed, dried and analysed. One unit (U) of SGK was that amount which phosphorylated 1 nmole of Crosstide in one min.
# SGK2 = target: T3, SGK2 (Homo sapiens, UniProt Q9HBY8); assay: Activation of SGK2 by PDK1 in vitro; format: biochemical; conditions: 10 μM in PS/PC lipid vesicles
# T3 construct: pEBG-SGK2α expressing full length of SGK2α; made in house; host or cells: 293 cells
# T3 sequence (Q9HBY8 1-367): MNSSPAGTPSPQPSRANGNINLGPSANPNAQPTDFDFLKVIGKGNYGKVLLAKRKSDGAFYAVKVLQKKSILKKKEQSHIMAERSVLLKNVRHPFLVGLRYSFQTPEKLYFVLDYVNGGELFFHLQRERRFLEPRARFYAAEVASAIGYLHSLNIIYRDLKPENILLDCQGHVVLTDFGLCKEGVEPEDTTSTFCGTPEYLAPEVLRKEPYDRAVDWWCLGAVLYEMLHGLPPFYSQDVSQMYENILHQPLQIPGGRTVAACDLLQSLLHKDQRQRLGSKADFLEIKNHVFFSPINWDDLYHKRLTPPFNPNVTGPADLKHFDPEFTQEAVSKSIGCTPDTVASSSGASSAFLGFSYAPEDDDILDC
# Procedure: as §4
# [5] = tested on: protein phosphatase 2A (PP2A); format: biochemical
# [6] = 10% serum 30 min, 0.4 M sorbitol 30 min
# [7] = IGF-1 50 ng/ml 10 min, H2O2 2 mM 25 min
molecule,measurement,setting,value
OC[C@@H](O)[C@@H](O)[C@H](O)[C@@H](O)CO [sorbitol],Effect of the stimulus on SGK2α activity (in words),SGK2α; [6],had no effect
same,Effect of the stimulus on SGK3 activity (in words),SGK3 [1]; [6],had no effect
same,Effect of the stimulus on SGK1 activity (in words),SGK1; [6],potently inhibited
OO [hydrogen peroxide],Activation of SGK2α by the stimulus,SGK2α; [7],5 fold
same,Activation of SGK3 by the stimulus,SGK3 [1]; [7],5 fold
same,Activation of SGK1 by the stimulus,SGK1; [7],five fold
"CCCCCCCCCCCCCC(=O)O[C@@H]1[C@@H](C)[C@@]2(O)[C@@H](C=C(CO)C[C@]3(O)C(=O)C(C)=C[C@@H]23)[C@@H]2C(C)(C)[C@]12OC(C)=O [Phorbol myristate acetate, reference compound]",Activation of SGK by the stimulus (in words),SGK [2],did not induce any activation
"PtdIns(3,4,5)P3",Effect on phosphorylation and activation of SGK by PDK1,SGK [3],unaffected
same,Effect on activation of SGK3 by PDK1,SGK3 [4],slightly inhibited
same,Effect on activation of SGK2 by PDK1,SGK2,slightly inhibited
"C=C1C(=O)N[C@H](C)C(=O)N[C@@H](CC(C)C)C(=O)N[C@@H](C(=O)O)[C@H](C)C(=O)N[C@@H](CCCNC(=N)N)C(=O)N[C@@H](/C=C/C(C)=C/[C@H](C)[C@H](Cc2ccccc2)OC)[C@H](C)C(=O)N[C@@H](C(=O)O)CCC(=O)N1C [microcystin, microcystin-LR] (R[Adda][d(γGlu)][NMeDha][dA]L[dAsp(3S-Me)]-OH; lactam N-7)",Effect on inactivation of GST-SGK by PP2A,[5],prevented
EGF: activator of the classical MAP kinase cascade in 293 cells,Activation of SGK by the stimulus (in words),SGK [2],did not induce any activation

# Source: patent US7083511B1, “Methods” (The University of Dundee, priority 1998, dated 2006)
